Results on 13 compounds are retold here after patent US20090155209A1, “NOVEL MACROCYCLIC INHIBITORS OF HEPATITIS C VIRUS REPLICATION” (priority 2007, published 2009).

Some results are limits rather than exact numbers.

For test [1], the target named is T1, NS3-NS4 (Hepatitis C virus genotype 1a, UniProt P27958). The experiment in a line: cell-based. The following applies: EC50, NS3-NS4 activity.
In test [2] the target is T1, NS3-NS4. As to the kind of experiment: NS3-NS4 activity, IC50 (Example 37, Table 8). It is filed as biochemical.

T1 sequence (P27958 1027-1657): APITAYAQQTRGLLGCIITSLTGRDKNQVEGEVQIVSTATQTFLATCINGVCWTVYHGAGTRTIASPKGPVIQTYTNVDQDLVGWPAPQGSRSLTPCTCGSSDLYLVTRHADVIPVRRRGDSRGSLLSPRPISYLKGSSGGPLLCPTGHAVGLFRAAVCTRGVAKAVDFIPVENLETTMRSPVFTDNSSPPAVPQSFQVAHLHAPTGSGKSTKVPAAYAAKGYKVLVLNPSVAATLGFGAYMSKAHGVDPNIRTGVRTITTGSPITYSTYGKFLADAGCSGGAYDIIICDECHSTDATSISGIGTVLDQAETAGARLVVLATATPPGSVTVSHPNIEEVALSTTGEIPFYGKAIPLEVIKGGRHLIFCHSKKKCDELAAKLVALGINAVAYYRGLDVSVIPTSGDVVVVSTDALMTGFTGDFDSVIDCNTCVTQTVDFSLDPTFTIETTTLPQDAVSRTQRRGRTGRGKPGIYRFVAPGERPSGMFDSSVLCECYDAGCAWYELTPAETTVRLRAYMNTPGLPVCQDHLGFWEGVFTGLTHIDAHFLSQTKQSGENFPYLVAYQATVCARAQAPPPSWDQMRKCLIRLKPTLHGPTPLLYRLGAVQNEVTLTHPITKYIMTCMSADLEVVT
T1 sequence (P27958 1658-1711): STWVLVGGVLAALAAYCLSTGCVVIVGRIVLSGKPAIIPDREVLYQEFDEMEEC

Compound `O=C1N[C@]2(C(=O)NS(=O)(=O)C3CC3)C[C@H]2/C=C\CCCCC[C@H](Nc2ccc(F)cc2)C(=O)N2C[C@H](OC(=O)N3Cc4cccc(F)c4C3)C[C@@H]12` [Compound 447, (2R,6S,13aS,14aR,16aS,Z)-14a-(cyclopropylsulfonylcarbamoyl)-6-(4-fluorophenylamino)-5,16-dioxo-1,2,3,5,6,7,8,9,10,11,13a,14,14a,15,16,16a-hexadecahydrocyclopropa[e]pyrrolo[1,2-a][1,4]diazacyclopentadecin-2-yl 4-fluoroisoindoline-2-carboxylate] displayed an EC50 on NS3-NS4 [1] of less than 100 nM. The compound also showed an IC50 against NS3-NS4 [2] of less than 100 nM.

Consider `CC(C)(C)OC(=O)N[C@H]1CCCCC/C=C\[C@@H]2C[C@@]2(C(=O)NOc2cccc(C(F)(F)F)c2)NC(=O)[C@@H]2C[C@@H](OC(=O)N3Cc4cccc(F)c4C3)CN2C1=O` [Compound 709], for which the EC50 at NS3-NS4 [1] is 1000 to 10000 nM. For the same compound, on NS3-NS4 [2], the IC50 was less than 100 nM.

In turn, `CC(=O)O[C@@H]1C[C@H]2C(=O)N[C@]3(C(=O)NS(=O)(=O)C4CC4)C[C@H]3/C=C\CCCCC[C@H](Nc3nc(-c4ccc(F)cc4)cs3)C(=O)N2C1` [Compound 233] gave an EC50 at NS3-NS4 [1] of 100 to 1000 nM. The IC50 at NS3-NS4 [2] is less than 100 nM.

In turn, `Cc1ccc(S(=O)(=O)NC(=O)[C@@]23C[C@H]2/C=C\CCCCC[C@H](NC(=O)OC(C)(C)C)C(=O)N2C[C@H](OC(=O)N4Cc5cccc(F)c5C4)C[C@H]2C(=O)N3)c(C)c1` [Compound 355] registered an EC50 on NS3-NS4 [1] of less than 100 nM. At NS3-NS4 [2], this compound registered an IC50 of less than 100 nM.

`CC(C)(C)OC(=O)N[C@H]1CCCCC/C=C\[C@@H]2C[C@@]2(C(=O)NS(=O)(=O)c2ccccc2F)NC(=O)[C@@H]2C[C@@H](OC(=O)N3Cc4cccc(F)c4C3)CN2C1=O` [Compound 349] showed an EC50 at NS3-NS4 [1] of less than 100 nM. Also, the IC50 against NS3-NS4 [2] was less than 100 nM.

In the case of `CC(C)(C)OC(=O)N[C@H]1CCCCC/C=C\[C@@H]2C[C@@]2(C(=O)NS(=O)(=O)Cc2cc(F)cc(F)c2)NC(=O)[C@@H]2C[C@@H](OC(=O)N3Cc4cccc(F)c4C3)CN2C1=O` [Compound 523], at NS3-NS4 [1], the EC50 is 100 to 1000 nM. The same compound had an IC50 against NS3-NS4 [2] of less than 100 nM.

On to `CC(C)CS(=O)(=O)NC(=O)[C@@]12C[C@H]1CCCCCCC[C@H](NC(=O)OC(C)(C)C)C(=O)N1C[C@H](OC(=O)N3Cc4cccc(F)c4C3)C[C@H]1C(=O)N2` [Compound 656], for which the EC50 on NS3-NS4 [1] is less than 100 nM. The IC50 against NS3-NS4 [2] was less than 100 nM.

Regarding `Cc1ccc(C)c(ONC(=O)[C@@]23C[C@H]2/C=C\CCCCC[C@H](NC(=O)OC(C)(C)C)C(=O)N2C[C@H](OC(=O)N4Cc5cccc(F)c5C4)C[C@H]2C(=O)N3)c1` [Compound 713], on NS3-NS4 [1], the EC50 lay in the range of 1000 to 10000 nM. Moreover, the IC50 on NS3-NS4 [2] is less than 100 nM.

`CC(C)(C)OC(=O)N[C@H]1CCCCC/C=C\[C@@H]2C[C@@]2(C(=O)NOc2cccc(F)c2)NC(=O)[C@@H]2C[C@@H](OC(=O)N3Cc4cccc(F)c4C3)CN2C1=O` [Compound 704] returned an EC50 at NS3-NS4 [1] of 1000 to 10000 nM. The same compound returned a half-maximal inhibitory concentration (IC50) against NS3-NS4 [2] of less than 100 nM.

`O=C1N[C@]2(C(=O)NS(=O)(=O)C3CC3)C[C@H]2/C=C\CCCCC[C@H](Nc2nc(-c3ccc(F)cn3)cs2)C(=O)N2C[C@H](OC(=O)N3Cc4cccc(Cl)c4C3)C[C@@H]12` [Compound 228] displayed an EC50 on NS3-NS4 [1] of less than 100 nM. At NS3-NS4 [2], this compound registered an IC50 of less than 100 nM.

For `CCCS(=O)(=O)NC(=O)[C@@]12C[C@H]1/C=C\CCCCC[C@H](NC(=O)OC(C)(C)C)C(=O)N1C[C@H](OC(=O)N3Cc4cccc(F)c4C3)C[C@H]1C(=O)N2` [Compound 550], the EC50 on NS3-NS4 [1] was less than 100 nM. The same compound yielded a half-maximal inhibitory concentration (IC50) at NS3-NS4 [2] of less than 100 nM.

Consider `CC(C)(C)OC(=O)N[C@H]1CCCCC/C=C\[C@@H]2C[C@@]2(C(=O)NS(=O)(=O)c2cc(F)ccc2F)NC(=O)[C@@H]2C[C@@H](OC(=O)N3Cc4cccc(F)c4C3)CN2C1=O` [Compound 307], for which the EC50 on NS3-NS4 [1] is less than 100 nM. Further, on NS3-NS4 [2], the IC50 was less than 100 nM.

Consider `O=C(N[C@H]1CCCCC/C=C\[C@@H]2C[C@@]2(C(=O)NS(=O)(=O)C2CC2)NC(=O)[C@@H]2C[C@@H](OC(=O)N3Cc4cccc(F)c4C3)CN2C1=O)OC(C1CC1)C1CC1` [Compound 428], for which the concentration for a half-maximal effect (EC50) at NS3-NS4 [1] lay within 100 to 1000 nM. The IC50 at NS3-NS4 [2] is less than 100 nM.
